# Assay results from patent EP1608360B1, “SYNERGISTIC HEPATOPROTECTIVE COMPOSITION AND A METHOD THEREOF” (COUNCIL OF SCIENTIFIC AND INDUSTRIAL RESEARCH, priority 2003, dated 2004).
# Several values for one entry are separate records, joined by “and”; a condition that tells them apart may be missing. Equal entries are not always repeated. Where two headings read alike, the source gives them in different places.
# Experiments:
# [1] = system: Paracetamol (APAP) induced hepatic injury; type: in vivo; conditions: Table-2
# Experimental: […] Formulation is extremely safe having a therapeutic index of > 40. No mortality was recorded upto a dose of 2g-kg-1 p.o. in mice.
# Table-2: Hepatoprotective potential of Andrographolide (AP) against Paracetamol (APAP) induced hepatic injury in Rodents (prophylactic). […]
# [2] = After 72 hrs; cited from earlier work
# [3] = system: Acetaminophen (APAP) induced hepatic injury; test: Hepatoprotective activity (in vivo), pre-treatment, diethyl-ether inhalation plus Acetaminophen (APAP), prophylactic study (Table 4); design: species or system Mice: Swiss albino; conditions: 50 mg/kg p.o. at 72h, 48h, 24h, 1h before diethyl-ether and 1h after APAP 200mg/kg i.p.
# Experimental: Table-4: Hepatoprotective activity (in vivo) of TCA and silymarin (Pre-treatment) fed at 72h, 48h, 24h, 1h before inhalation of diethyl - ether and 1h after Acetaminophen (APAP) 200mg/kg given i.p. 6h after exposure to diethyl - ether (prophylactic study).
# [4] = system: paracetamol (APAP) induced hepatic injury; test: Hepatoprotective activity (in vivo) against paracetamol (APAP) induced hepatic injury in mice, prophylactic study (Table 1); conditions: 50 mg/kg p.o. + APAP
# Experimental: All the list materials were administered P.O. routes in a uniform dose level of 50 mg kg-1. Formulation is extremely safe having a therapeutic index of > 40. No mortality was recorded upto a dose of 2g-kg-1 p.o. in mice.
# • Fig.1 Low Power view 10 X of bridging necroses • Fig.2 High Power view 40X of bridging necroses • Fig.3 High Power view 40X of centrilobular necrosis • Fig.4 Lower Power view 10X of centrilobular necrosis • Fig.5 Effect of paracetamol on liver when given along with high doses of hepatoprotective formulations • Fig.6 Ballooning degeneration of cells along with cytoplasmic rarefaction clearing Table 1: Hepatoprotective activity (in vivo) of synergistic formulation and Silymarin agains paracetamol (APAP) induced hepatic injury in mice2. (prophylactic study)
# [5] = 6.25 mg kg^-1 + APAP, prophylactic
# [6] = 12.5 mg kg^-1 + APAP, prophylactic
# [7] = 25 mg kg^-1 + APAP, prophylactic
# [8] = 50 mg kg^-1 + APAP, prophylactic
# [9] = 50 mg kg^-1 + APAP, prophylactic, listed as Andrographolide
# [10] = 50 mg kg^-1 + APAP, prophylactic, listed as andrographolide
# [11] = 50 mg kg^-1 only (per se), no APAP
# [12] = 100 mg kg^-1 + APAP, prophylactic
smiles,measurement,setting,value
"C=C1CC[C@@H]2[C@](C)(CO)[C@H](O)CC[C@@]2(C)[C@@H]1C/C=C1/C(=O)OC[C@H]1O [AP, andrographolide]",Hepatic GSH (glutathione),[1]; [5],2.85±0.19 µ mole GSH/g liver
same,"Hepatic GSH, percent hepatoprotective activity",[1]; [5],(17.40) %
same,Hepatic LP (lipid peroxidation),[1]; [5],58.96±2.04 n mole MDA/g liver
same,"Hepatic LP, percent hepatoprotective activity",[1]; [5],(10.61) %
same,Hepatic Protein,[1]; [5],133.20±5.39 mg %
same,"Hepatic Protein, percent hepatoprotective activity",[1]; [5],(6.75) %
same,Serum ALP,[1]; [5],55.84±2.27 µ mole of p-nitrophenol formed /min/L
same,"Serum ALP, percent hepatoprotective activity",[1]; [5],(18.49) %
same,Serum Albumin,[1]; [5],3.10±0.08 g %
same,"Serum Albumin, percent hepatoprotective activity",[1]; [5],(32.84) %
same,Serum GOT,[1]; [5],992.69±66.36 Units
same,"Serum GOT, percent hepatoprotective activity",[1]; [5],(14.54) %
same,Serum GPT,[1]; [5],1224.99±63.65 Units
same,"Serum GPT, percent hepatoprotective activity",[1]; [5],(20.76) %
same,Serum LDH,[1]; [5],1454.48±66.02 units
same,"Serum LDH, percent hepatoprotective activity",[1]; [5],(25.45) %
same,Serum TG,[1]; [5],63.92±2.11 mg %
same,"Serum TG, percent hepatoprotective activity",[1]; [5],(24.17) %
same,Hepatic GSH (glutathione),[1]; [6],3.78±0.19 µ mole GSH/g liver
same,"Hepatic GSH, percent hepatoprotective activity",[1]; [6],(40.19) %
same,Hepatic LP (lipid peroxidation),[1]; [6],53.10±2.07 n mole MDA/g liver
same,"Hepatic LP, percent hepatoprotective activity",[1]; [6],(46.23) %
same,Hepatic Protein,[1]; [6],141.36±4.25 mg %
same,"Hepatic Protein, percent hepatoprotective activity",[1]; [6],(23.52) %
same,Serum ALP,[1]; [6],49.41±1.35 µ mole of p-nitrophenol formed /min/L
same,"Serum ALP, percent hepatoprotective activity",[1]; [6],(37.13) %
same,Serum Albumin,[1]; [6],3.29±0.15 g %
same,"Serum Albumin, percent hepatoprotective activity",[1]; [6],(47.02) %
same,Serum GOT,[1]; [6],816.54±47.10 Units
same,"Serum GOT, percent hepatoprotective activity",[1]; [6],(32.07) %
same,Serum GPT,[1]; [6],1051.99±46.30 Units
same,"Serum GPT, percent hepatoprotective activity",[1]; [6],(33.12) %
same,Serum LDH,[1]; [6],1255.65±61.32 units
same,"Serum LDH, percent hepatoprotective activity",[1]; [6],(37.14) %
same,Serum TG,[1]; [6],56.59±2.42 mg %
same,"Serum TG, percent hepatoprotective activity",[1]; [6],(41.39) %
same,Hepatic GSH (glutathione),[1]; [7],4.15±0.15 µ mole GSH/g liver
same,"Hepatic GSH, percent hepatoprotective activity",[1]; [7],(49.26) %
same,Hepatic LP (lipid peroxidation),[1]; [7],50.62±2.23 n mole MDA/g liver
same,"Hepatic LP, percent hepatoprotective activity",[1]; [7],(51.45) %
same,Hepatic Protein,[1]; [7],148.36±3.57 mg %
same,"Hepatic Protein, percent hepatoprotective activity",[1]; [7],(37.92) %
same,Serum ALP,[1]; [7],43.92±2.19 µ mole of p-nitrophenol formed /min/L
same,"Serum ALP, percent hepatoprotective activity",[1]; [7],(53.04) %
same,Serum Albumin,[1]; [7],3.32±0.15 g %
same,"Serum Albumin, percent hepatoprotective activity",[1]; [7],(49.25) %
same,Serum GOT,[1]; [7],720.76±50.62 Units
same,"Serum GOT, percent hepatoprotective activity",[1]; [7],(41.40) %
same,Serum GPT,[1]; [7],881.23±36.85 Units
same,"Serum GPT, percent hepatoprotective activity",[1]; [7],(45.45) %
same,Serum LDH,[1]; [7],1014.27±44.04 units
same,"Serum LDH, percent hepatoprotective activity",[1]; [7],(51.34) %
same,Serum TG,[1]; [7],51.68±2.73 mg %
same,"Serum TG, percent hepatoprotective activity",[1]; [7],(52.92) %
same,Hepatic GSH (glutathione),[1]; [8],4.400±0.25 µ mole GSH/g liver
same,"Hepatic GSH, percent hepatoprotective activity",[1]; [8],(57.35) %
same,Hepatic LP (lipid peroxidation),[1]; [8],47.90±1.93 n mole MDA/g liver
same,"Hepatic LP, percent hepatoprotective activity",[1]; [8],(58.35) %
same,Hepatic Protein,[1]; [8],155.34±3.11 mg %
same,"Hepatic Protein, percent hepatoprotective activity",[1]; [8],(52.27) %
same,Serum ALP,[1]; [8],40.18±2.03 µ mole of p-nitrophenol formed /min/L
same,"Serum ALP, percent hepatoprotective activity",[1]; [8],(63.88) %
same,Serum Albumin,[1]; [8],3.55±0.18 g %
same,"Serum Albumin, percent hepatoprotective activity",[1]; [8],(66.41) %
same,Serum GOT,[1]; [8],534.56±19.65 Units
same,"Serum GOT, percent hepatoprotective activity",[1]; [8],(60.14) %
same,Serum GPT,[1]; [8],760.73±49.35 Units
same,"Serum GPT, percent hepatoprotective activity",[1]; [8],(54.15) %
same,Serum LDH,[1]; [8],952.45±34.82 units
same,"Serum LDH, percent hepatoprotective activity",[1]; [8],(54.97) %
same,Serum TG,[1]; [8],49.22±1.78 mg %
same,"Serum TG, percent hepatoprotective activity",[1]; [8],(58.70) %
same,"Hepatic GSH, percent hepatoprotective activity",[1]; [9],57.35%
same,"Hepatic LP, percent hepatoprotective activity",[1]; [9],58.35%
same,"Hepatic Protein, percent hepatoprotective activity",[1]; [9],52.27%
same,"Serum ALP, percent hepatoprotective activity",[1]; [9],63.88%
same,"Serum Albumin, percent hepatoprotective activity",[1]; [9],66.41%
same,"Serum GOT, percent hepatoprotective activity",[1]; [9],60.14%
same,"Serum GPT, percent hepatoprotective activity",[1]; [9],54.15%
same,"Serum LDH, percent hepatoprotective activity",[1]; [9],54.97%
same,"Serum TG, percent hepatoprotective activity",[1]; [9],58.70%
same,"Hepatic GSH, percent hepatoprotective activity",[1]; [10],57.35%
same,"Hepatic LP, percent hepatoprotective activity",[1]; [10],58.35% and 55.35%
same,"Serum ALP, percent hepatoprotective activity",[1]; [10],63.88%
same,"Serum Albumin, percent hepatoprotective activity",[1]; [10],66.41%
same,"Serum GOT, percent hepatoprotective activity",[1]; [10],60.14%
same,"Serum GPT, percent hepatoprotective activity",[1]; [10],54.15%
same,"Serum LDH, percent hepatoprotective activity",[1]; [10],54.97%
same,"Serum TG, percent hepatoprotective activity",[1]; [10],58.70%
same,Hepatic GSH (glutathione),[1]; [11],6.40±0.21 µ mole GSH/g liver
same,Hepatic LP (lipid peroxidation),[1]; [11],31.60±2.09 n mole MDA/g liver
same,Hepatic Protein,[1]; [11],182.05±10.23 mg %
same,Serum ALP,[1]; [11],27.72±2.71 µ mole of p-nitrophenol formed /min/L
same,Serum Albumin,[1]; [11],3.96±0.08 g %
same,Serum GOT,[1]; [11],134.92±4.25 Units
same,Serum GPT,[1]; [11],126.11±3.09 Units
same,Serum LDH,[1]; [11],181.02±10.29 units
same,Serum TG,[1]; [11],32.29±2.31 mg %
same,Hepatic GSH (glutathione),[1]; [12],4.60±0.24 µ mole GSH/g liver
same,"Hepatic GSH, percent hepatoprotective activity",[1]; [12],(60.29) %
same,Hepatic LP (lipid peroxidation),[1]; [12],45.30±2.08 n mole MDA/g liver
same,"Hepatic LP, percent hepatoprotective activity",[1]; [12],(64.95) %
same,Hepatic Protein,[1]; [12],146.78±5.09 mg %
same,"Hepatic Protein, percent hepatoprotective activity",[1]; [12],(34.66) %
same,Serum ALP,[1]; [12],44.14±2.24 µ mole of p-nitrophenol formed /min/L
same,"Serum ALP, percent hepatoprotective activity",[1]; [12],(52.40) %
same,Serum Albumin,[1]; [12],3.38±0.26 g %
same,"Serum Albumin, percent hepatoprotective activity",[1]; [12],(53.73) %
same,Serum GOT,[1]; [12],795.92±27.59 Units
same,"Serum GOT, percent hepatoprotective activity",[1]; [12],(34.12) %
same,Serum GPT,[1]; [12],764.37±44.32 Units
same,"Serum GPT, percent hepatoprotective activity",[1]; [12],(53.89) %
same,Serum LDH,[1]; [12],1256.05±33.97 units
same,"Serum LDH, percent hepatoprotective activity",[1]; [12],(37.11) %
same,Serum TG,[1]; [12],47.39±2.13 mg %
same,"Serum TG, percent hepatoprotective activity",[1]; [12],(63.00) %
same,"excreted, mostly by urinary excretion",[2],~90%
"CCCCCCCC/C=C/CCCCCCCCCCCCCC(=O)O [TCA, trans-tetracos-15-enoic acid]",Hepatic Lipid peroxidation,[3],55.48 n moles MDA/g liver
same,Serum ALP,[3],52.96 µ mole of p-nitrophenol formed/min/ L
same,Serum Bilirubin,[3],56.35 mg %
same,Serum GOT,[3],54.92 Units
same,Serum GPT,[3],57.99 Units
same,Serum Triglycerides,[3],66.05 mg %
same,Serum ALP,[3]; listed as t-tca,52.96 µ mole of p-nitrophenol formed
same,"Hepatic Glutathione, percent hepatoprotective activity",[4],53.15%
same,"Hepatic Lipid peroxidation, percent hepatoprotective activity",[4],64.15%
same,"Serum ALP, percent hepatoprotective activity",[4],82.35%
same,"Serum GOT, percent hepatoprotective activity",[4],62.00%
same,"Serum GPT, percent hepatoprotective activity",[4],75.00%
same,"Serum Triglycerides, percent hepatoprotective activity",[4],66.45%
